Laboratory results from US12435061B2 (priority 2020, dated 2025).
≈ marks a conversion by molar mass, not a printed value. Where two headings read alike, the source gives them in different places.

Key:
hTRPV3 [1] = biological target: T1, hTRPV3 (Homo sapiens (Human), UniProt Q8NET8); test: Whole-cell patch clamp, hTRPV3 Phase 1 / Phase 2 currents; assay type: cell-based
Summary of the method: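 Currents are activated by 20 μM 2-APB or by perfusate at 28 °C or warmer, in Ringer's solution, and quantified at ±80 mV.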

[2] = Aqueous solubility assay in Normal Ringer Solution; conditions: Normal Ringer Solution; for solubility at 40 min: saline or isotonic, kinetic from dmso stock; for Solubility Ringer (nM): room temperature
Method: Following vortex and incubation for a sufficient time (e.g. 40 minutes at room temperature), solutions were filtered, quenched with acetonitrile, and analyzed by Liquid Chromotography. Solubility Limits were determined by comparison to a standard curve.

[3] = Metabolic Stability assay, rat liver microsomes; assay type: in vitro ADME; conditions: read-out: LM T1/2 (min) (rat)
Summary of the method: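 Reactions in human or rat liver microsomes at 37 °C were started with an NADPH-regenerating system, using 1 μM compound initially. Samples were taken at 0, 7, 15, 30 and 60 min, quenched in ice-cold acetonitrile/MeOH/H2O, and quantified by HPLC/MS/MS.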

hTRPV3 [4] = biological target: T1, hTRPV3; test: hTRPV3 HAMA IC50 assay (Hamamatsu FDSS6000 calcium flux, TRex-293 cells)
Method: IC50s were calculated using CBIS from ChemInnovation (San Diego).

[5] = Phase 1 current, inward, whole-cell patch clamp, read-out: hTRPV3 Patch P1 Inwd
[6] = Phase 1 current, read-out: hTRPV3 (nM) (Phase 1)
[7] = Phase 2 current, inward, whole-cell patch clamp, read-out: hTRPV3 Patch P2 Inwd
[8] = Phase 2 current, read-out: hTRPV3 (nM) (Phase 2)
[9] = hTRPV3 HAMA IC50 (nM) (5 min), 5 min
[10] = hTRPV3 HAMA IC50 (nM) (30 min), 30 min

T1 sequence (Q8NET8 whole entry): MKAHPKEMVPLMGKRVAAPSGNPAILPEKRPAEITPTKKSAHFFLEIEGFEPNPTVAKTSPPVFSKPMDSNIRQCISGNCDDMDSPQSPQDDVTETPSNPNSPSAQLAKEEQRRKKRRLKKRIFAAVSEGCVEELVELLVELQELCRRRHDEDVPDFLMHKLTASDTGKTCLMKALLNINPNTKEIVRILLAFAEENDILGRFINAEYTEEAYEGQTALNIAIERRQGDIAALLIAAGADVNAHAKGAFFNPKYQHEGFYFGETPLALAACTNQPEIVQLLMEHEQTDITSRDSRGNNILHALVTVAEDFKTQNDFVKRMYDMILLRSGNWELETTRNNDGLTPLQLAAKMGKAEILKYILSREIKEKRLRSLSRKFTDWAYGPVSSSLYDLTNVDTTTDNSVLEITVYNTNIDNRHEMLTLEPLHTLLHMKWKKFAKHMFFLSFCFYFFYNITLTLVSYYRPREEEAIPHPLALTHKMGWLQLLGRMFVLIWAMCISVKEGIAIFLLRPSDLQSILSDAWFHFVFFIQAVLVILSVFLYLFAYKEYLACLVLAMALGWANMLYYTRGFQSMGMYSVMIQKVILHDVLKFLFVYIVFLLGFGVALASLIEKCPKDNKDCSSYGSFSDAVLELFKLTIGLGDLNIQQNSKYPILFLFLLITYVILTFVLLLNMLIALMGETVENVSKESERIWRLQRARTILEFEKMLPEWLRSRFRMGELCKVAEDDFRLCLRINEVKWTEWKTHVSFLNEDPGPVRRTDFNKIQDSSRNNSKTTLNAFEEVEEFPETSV

SMILES	IC50 (hTRPV3 [1]; [5])	IC50 (hTRPV3 [1]; [6])	IC50 (hTRPV3 [1]; [7])	IC50 (hTRPV3 [1]; [8])	solubility at 40 min [2]	half-life at 1 μM [3]	hTRPV3 HAMA IC50 (nM) (5 min) (hTRPV3 [4]; 5 min)	Solubility Ringer (nM) [2]	also measured
NC(=O)c1cc(Cl)ccc1N1CC[C@H](Oc2ccc(C(F)(F)F)cn2)C1 [Compound 1-31, (S)-5-chloro-2-(3-(5-(trifluoromethyl)pyridin-2-yloxy)pyrrolidin-1-yl)benzamide]	100 to 1000 nM	~883 nM	100 to 1000 nM	546 nM	> 16.8 µM	34.3 min	no fit (5 min)	–	–
NC(=O)c1cc(-c2ccccc2)ccc1N1CC[C@H](Oc2ccc(C(F)(F)F)cn2)C1 [Compound 1-32, (S)-4-(3-(5-(trifluoromethyl)pyridin-2-yloxy)pyrrolidin-1-yl)biphenyl-3-carboxamide]	100 to 1000 nM	285 nM	100 to 1000 nM	273 nM	–	44.3 min	no fit (5 min)	BLQ	–
N#Cc1cc(C(F)(F)F)ccc1N1CC[C@H](Oc2ccc(C(F)(F)F)cn2)C1 [Compound 1-57]	100 to 1000 nM	706 nM	100 to 1000 nM	219 nM	–	–	no fit (5 min)	BLQ	–
NC(=O)c1cc(-c2ccccc2Cl)ccc1N1CC[C@H](Oc2ccc(C(F)(F)F)cn2)C1 [Compound 1-64, (S)-2′-chloro-4-(3-(5-(trifluoromethyl)pyridin-2-yloxy)pyrrolidin-1-yl)biphenyl-3-carboxamide]	100 to 1000 nM	145 nM	100 to 1000 nM	160 nM	–	–	no fit (5 min)	BLQ	–
O=[N+]([O-])c1cc(-c2ccccc2)ccc1N1CC[C@H](Oc2ccc(C(F)(F)F)cn2)C1 [Compound 1-66, (S)-2-(1-(3-nitrobiphenyl-4-yl)pyrrolidin-3-yloxy)-5-(trifluoromethyl)pyridine]	–	–	–	–	–	–	no fit (5 min)	BLQ	hTRPV3 (nM) (Phase 1) (hTRPV3 [1]): Incomplete Block (Phase 1)
NC(=O)c1cc(-c2ccccc2)ccc1N1CC[C@H](Oc2ccc3cc(Cl)ccc3n2)C1 [Compound 1-67, (S)-4-(3-(6-chloroquinolin-2-yloxy)pyrrolidin-1-yl)biphenyl-3-carboxamide]	> 1000 nM	1270 nM	100 to 1000 nM	585 nM	–	–	no fit (5 min)	BLQ	–
Cc1ccccc1-c1ccc(N2CC[C@H](Oc3ccc(C(F)(F)F)cn3)C2)c(CO)c1 [Compound 1-128, (S)-(2′-methyl-4-(3-(5-(trifluoromethyl)pyridin-2-yloxy)pyrrolidin-1-yl)biphenyl-3-yl)methanol]	100 to 1000 nM	114 nM	–	–	–	–	no fit (5 min)	BLQ	–
NC(=O)c1cc(Oc2ccccc2)ccc1N1CC[C@H](Oc2ncccc2Cl)C1 [Compound 1-129]	–	–	–	–	–	6.42 min	–	–	IC50 (hTRPV3 [1]; hTRPV3 Patch P1 Inwd (nM)): 100 to 1000 nM; hTRPV3 HAMA IC50 (nM) (5 min) (hTRPV3 [4]): no fit (5 min)
NC(=O)c1cc(C(=O)c2ccccc2)ccc1N1CC[C@@H](Oc2ccc(C(F)(F)F)cn2)C1 [Compound 1-154, (R)-5-benzoyl-2-(3-(5-(trifluoromethyl)pyridin-2-yloxy)pyrrolidin-1-yl)benzamide]	> 1000 nM	3040 nM	–	–	–	54.5 min	no fit (5 min)	–	–
OCc1cc(-c2ccccc2OC(F)(F)F)ccc1N1CC[C@H](Oc2ccc(C(F)(F)F)cn2)C1 [Compound 1-161, (S)-(2′-(trifluoromethoxy)-4-(3-(5-(trifluoromethyl)pyridin-2-yloxy)pyrrolidin-1-yl)biphenyl-3-yl)methanol]	10 to 100 nM	93.4 nM	–	–	–	–	no fit (5 min)	BLQ	–
CCOc1ccccc1-c1ccc(N2CC[C@H](Oc3ccc(C(F)(F)F)cn3)C2)c(CO)c1 [Compound 1-162, (S)-(2′-ethoxy-4-(3-(5-(trifluoromethyl)pyridin-2-yloxy)pyrrolidin-1-yl)biphenyl-3-yl)methanol]	10 to 100 nM	101 nM	–	–	–	22.8 min	no fit (5 min)	–	–
OCCCc1cc(-c2ccccc2Cl)ccc1N1CC[C@H](Oc2ccc(C(F)(F)F)cn2)C1 [Compound 1-164]	100 to 1000 nM	190 nM	–	–	–	–	no fit (5 min)	BLQ	–
Cc1ccccc1-c1ccc(N2CC[C@H](Oc3ncccc3C)C2)c(CO)n1 [Compound 1-179, (S)-(3-(3-(3-methylpyridin-2-yloxy)pyrrolidin-1-yl)-6-o-tolylpyridin-2-yl)methanol]	100 to 1000 nM	329 nM	100 to 1000 nM	~841 nM	> 0.73 µM	–	no fit (5 min)	–	–
OCc1ccc(-c2ccccc2)cc1N1CC[C@H](Oc2ccc(C(F)(F)F)cn2)C1 [Compound 1-180, (S)-(3-(3-(5-(trifluoromethyl)pyridin-2-yloxy)pyrrolidin-1-yl)biphenyl-4-yl)methanol]	> 1000 nM	1550 nM	> 1000 nM	1860 nM	~0.2 µM (≈ 0.0829 µg/mL)	–	no fit (5 min) no fit (30 min)	–	hTRPV3 HAMA IC50 (nM) (30 min) (hTRPV3 [4]; 30 min): no fit (5 min) no fit (30 min)
NC(=O)c1cc(Oc2ccccc2Cl)ccc1N1CC[C@H](Oc2ncccc2Cl)C1 [Compound 1-181, (S)-5-(2-chlorophenoxy)-2-(3-(3-chloropyridin-2-yloxy)pyrrolidin-1-yl)benzamide]	100 to 1000 nM	571 nM	100 to 1000 nM	834 nM	–	8.96 min	no fit (5 min)	–	–
Cc1ccccc1-c1ccc(N2CC[C@H](Oc3ccc(C(F)(F)F)cn3)C2)c(CO)n1 [Compound 1-182, (S)-(6-o-tolyl-3-(3-(5-(trifluoromethyl)pyridin-2-yloxy)pyrrolidin-1-yl)pyridin-2-yl)methanol]	> 1000 nM	> 3200 nM	–	–	~0.8 µM (≈ 0.344 µg/mL)	–	–	–	IC50 (hTRPV3 [4]; [9]): 19900 nM; IC50 (hTRPV3 [4]; [10]): 4600 nM
COc1ccccc1-c1ccc(N2CC[C@H](Oc3ccc(C(F)(F)F)cn3)C2)c(CO)n1 [Compound 1-183, (S)-(6-(2-methoxyphenyl)-3-(3-(5-(trifluoromethyl)pyridin-2-yloxy)pyrrolidin-1-yl)pyridin-2-yl)methanol]	–	–	> 1000 nM	> 3200 nM	0.84 µM (≈ 0.374 µg/mL)	–	no fit (5 min) no fit (30 min)	–	hTRPV3 HAMA IC50 (nM) (30 min) (hTRPV3 [4]; 30 min): no fit (5 min) no fit (30 min)
Cc1ccc(O[C@H]2CCN(c3ccc(-c4ccccc4CN(C)C)cc3CO)C2)nc1 [Compound 1-219, (S)-(2′-((dimethylamino)methyl)-4-(3-(5-methylpyridin-2-yloxy)pyrrolidin-1-yl)biphenyl-3-yl)methanol]	–	–	–	–	> 20 µM	–	no fit (5 min) no fit (30 min)	–	IC50 (hTRPV3 [1]; hTRPV3 Patch P1 Inwd (nM)): > 1000 nM; IC50 (hTRPV3 [1]; read-out: hTRPV3 (nM) (Phase 1)): > 3200 nM; hTRPV3 HAMA IC50 (nM) (30 min) (hTRPV3 [4]; 30 min): no fit (5 min) no fit (30 min)
CCc1ccccc1Oc1ccc(N2CC[C@H](Oc3ncccc3Cl)C2)c(CCO)c1 [Compound 1-236, (S)-2-(2-(3-(3-chloropyridin-2-yloxy)pyrrolidin-1-yl)-5-(2-ethylphenoxy)phenyl)ethanol]	< 10 nM	8.27 nM	–	–	–	–	no fit	BLQ	IC50 (hTRPV3 [4]; [10]): 5900 nM
OCCc1cc(Oc2ccccc2Cl)ccc1N1CC[C@H](Oc2ncccc2Cl)C1 [Compound 1-238, (S)-2-(5-(2-chlorophenoxy)-2-(3-(3-chloropyridin-2-yloxy)pyrrolidin-1-yl)phenyl)ethanol]	10 to 100 nM	~51 nM	–	–	–	–	–	BLQ	IC50 (hTRPV3 [4]; [9]): > 20000 nM; IC50 (hTRPV3 [4]; [10]): 16700 nM
